Data taken from patent US11685732B2, “MYST family histone acetyltransferase inhibitors” (Epizyme, Inc., priority 2017, dated 2023).
Where two headings read alike, the source gives them in different places.

Assays:
[1] = target: KAT-5 (Homo sapiens (Human), UniProt Q92993); experiment: KAT-5 biochemical inhibition assay (SAMDI mass spectrometry)
In short: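 KAT-5 at 9 nM final was preincubated with serially diluted compound (2% DMSO) in 50 mM Tris pH 8.0 with 1 mM DTT. Reaction ran with 1 μM peptide substrate and 0.5 μM acetyl-CoA for 90 min at 25° C, was quenched with 0.5% formic acid, and was read by SAMDI-TOF mass spectrometry.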

[2] = target: KAT-6A (Homo sapiens (Human), UniProt Q92794); experiment: KAT-6A biochemical inhibition assay (SAMDI mass spectrometry)
In short: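 Enzyme (12.5 nM final) pre-incubated with serially diluted compounds (2% DMSO final) in 50 mM Tris pH 8.0 with Tween20, gelatin and 1 mM DTT. Reaction started with 1 μM peptide substrate and 1 μM acetyl-CoA, run 90 min at 25 °C, quenched with 0.5% formic acid, read by SAMDI-TOF mass spectrometry; IC50 derived.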

[3] = target: KAT-7 (Homo sapiens (Human), UniProt O95251); experiment: KAT-7 biochemical inhibition assay (SAMDI mass spectrometry)
Protocol: (§1) KAT-7. Enzyme assay buffer was 50 mM Tris pH 8.0, 0.002% Tween20, 0.005% bovine skin gelatin, and 1 mM dithiothreitol (DTT). For determination of IC50 values, compounds were serially diluted with 2% (v/v) DMSO in the final reaction, pre-incubating each dilution of each compound with 40 μL of assay buffer containing KAT-7 enzyme (6 nM final concentration). 10 μL of assay buffer containing 1 μM peptide substrate and 2 μM acetyl coenzyme A (final concentrations) was added. Reactions (50 μL total) were then carried out at 25° C. for 120 minutes. Reactions were terminated by the addition of 0.5% formic acid (final concentration), and a sample of each reaction was analyzed by SAMDI Tech, Inc. (Chicago, Ill.) using self-assembled monolayer desorption/ionization time-of-flight mass spectrometry (Mrksich, M. (2008) Mass spectrometry of self-assembled monolayers: a new tool for molecular surface science. ACS Nano 2, 7-18).

[4] = target: KAT-8 (Homo sapiens (Human), UniProt Q9H7Z6); experiment: KAT-8 biochemical inhibition assay (SAMDI mass spectrometry)
Protocol: as §1, with “KAT-8. Enzyme” for “KAT-7. Enzyme”, “containing KAT-8” for “containing KAT-7”, “enzyme (12.5” for “enzyme (6”, “and 5” for “and 2”, “for 90” for “for 120”

Sequence of KAT-5 (Q92993 other isoform, or with tags, fused parts or gaps): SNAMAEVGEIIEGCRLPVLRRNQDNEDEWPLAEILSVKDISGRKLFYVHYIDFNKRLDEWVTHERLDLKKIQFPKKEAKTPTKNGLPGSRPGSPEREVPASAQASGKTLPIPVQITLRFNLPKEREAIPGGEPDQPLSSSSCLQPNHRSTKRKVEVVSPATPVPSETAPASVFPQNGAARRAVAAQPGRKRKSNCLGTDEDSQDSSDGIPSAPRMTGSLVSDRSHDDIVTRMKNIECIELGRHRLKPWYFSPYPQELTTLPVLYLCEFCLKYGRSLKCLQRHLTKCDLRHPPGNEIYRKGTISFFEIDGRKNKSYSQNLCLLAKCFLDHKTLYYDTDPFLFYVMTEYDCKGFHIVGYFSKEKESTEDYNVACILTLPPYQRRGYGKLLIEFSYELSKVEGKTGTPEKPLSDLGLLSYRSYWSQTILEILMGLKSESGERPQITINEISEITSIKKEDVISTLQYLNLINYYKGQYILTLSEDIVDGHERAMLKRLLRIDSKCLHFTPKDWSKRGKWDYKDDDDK
Sequence of KAT-6A (Q92794 other isoform, or with tags, fused parts or gaps): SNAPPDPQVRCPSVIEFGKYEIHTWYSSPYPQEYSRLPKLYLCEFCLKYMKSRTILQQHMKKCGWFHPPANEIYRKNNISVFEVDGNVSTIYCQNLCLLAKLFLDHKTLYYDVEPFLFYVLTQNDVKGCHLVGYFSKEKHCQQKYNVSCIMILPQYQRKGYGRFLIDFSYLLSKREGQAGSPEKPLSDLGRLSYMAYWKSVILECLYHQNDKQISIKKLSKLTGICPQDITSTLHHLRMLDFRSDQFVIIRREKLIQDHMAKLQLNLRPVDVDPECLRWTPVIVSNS
Sequence of KAT-7 (O95251 other isoform, or with tags, fused parts or gaps): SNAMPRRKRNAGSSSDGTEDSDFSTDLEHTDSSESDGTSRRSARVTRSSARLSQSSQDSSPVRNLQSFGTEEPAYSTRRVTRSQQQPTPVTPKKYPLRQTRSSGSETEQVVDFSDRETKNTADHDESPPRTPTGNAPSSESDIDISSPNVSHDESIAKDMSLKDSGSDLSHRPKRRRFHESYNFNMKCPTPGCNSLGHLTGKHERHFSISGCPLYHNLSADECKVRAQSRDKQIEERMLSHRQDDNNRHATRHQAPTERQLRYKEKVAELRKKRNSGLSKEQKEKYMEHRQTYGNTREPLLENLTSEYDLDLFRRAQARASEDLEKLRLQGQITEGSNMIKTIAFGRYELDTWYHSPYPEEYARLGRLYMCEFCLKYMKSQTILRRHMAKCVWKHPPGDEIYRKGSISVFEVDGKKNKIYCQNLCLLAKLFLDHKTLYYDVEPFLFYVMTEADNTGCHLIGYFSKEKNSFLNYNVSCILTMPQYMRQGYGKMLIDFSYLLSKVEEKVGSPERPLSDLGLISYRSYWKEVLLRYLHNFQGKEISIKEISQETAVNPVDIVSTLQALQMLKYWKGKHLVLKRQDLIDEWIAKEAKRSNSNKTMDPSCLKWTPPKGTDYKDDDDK
Sequence of KAT-8 (Q9H7Z6 other isoform, or with tags, fused parts or gaps): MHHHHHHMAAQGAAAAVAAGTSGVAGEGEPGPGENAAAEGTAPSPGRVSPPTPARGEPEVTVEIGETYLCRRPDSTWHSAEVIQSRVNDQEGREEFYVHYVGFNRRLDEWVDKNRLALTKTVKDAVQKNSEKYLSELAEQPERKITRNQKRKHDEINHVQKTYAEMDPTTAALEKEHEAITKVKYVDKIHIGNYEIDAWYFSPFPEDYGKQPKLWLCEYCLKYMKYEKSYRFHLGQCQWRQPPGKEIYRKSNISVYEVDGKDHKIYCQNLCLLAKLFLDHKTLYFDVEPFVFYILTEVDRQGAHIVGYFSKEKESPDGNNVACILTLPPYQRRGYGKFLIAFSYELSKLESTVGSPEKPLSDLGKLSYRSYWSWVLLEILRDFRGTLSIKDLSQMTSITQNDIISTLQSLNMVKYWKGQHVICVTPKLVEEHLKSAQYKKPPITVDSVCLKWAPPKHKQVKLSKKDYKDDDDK

| IC50 [1] [µM] | IC50 [2] [µM] | IC50 [3] [µM] | IC50 [4] [µM] | IC50 ([1]; Table 6, comparative compounds) [µM] | IC50 ([2]; Table 6, comparative compounds) [µM] | IC50 ([3]; Table 6, comparative compounds) [µM] | IC50 ([4]; Table 6, comparative compounds) [µM] | SMILES |
| --- | --- | --- | --- | --- | --- | --- | --- | --- |
| < 10 | < 10 | < 10 | 10 to 50 |  |  |  |  | Cn1cnc(-c2cc(Cl)c(F)c(C(=O)NNS(=O)(=O)C[C@H]3CC[C@H](NC(=O)Cc4ccccc4)CC3)c2)c1 [Compound I-229] |
| < 10 | < 10 | < 10 | 10 to 50 |  |  |  |  | Cn1cnc(-c2cc(Cl)c(F)c(C(=O)NNS(=O)(=O)c3c(F)cccc3F)c2)c1 [Compound I-378] |
| 10 to 50 | 10 to 50 | < 10 | 10 to 50 |  |  |  |  | CN[C@H]1CC[C@@H](CS(=O)(=O)NNC(=O)c2cc(-c3cn(C)cn3)cc(Cl)c2F)CC1 [Compound I-364] |
|  |  |  |  | 10 to 50 | 10 to 50 | 50 to 100 | > 100 | O=C(NNS(=O)(=O)CC1CCCNC1)c1cc(-c2ccccc2)cc(Cl)c1F (stereo not shown) [A, reference compound] |
| < 10 | < 10 | < 10 | 10 to 50 |  |  |  |  | Cn1cnc(-c2cc(Cl)c(F)c(C(=O)NNS(=O)(=O)C[C@H]3CC[C@H](NC(=O)OC(C)(C)C)CC3)c2)c1 [Compound I-96] |
| 10 to 50 | 10 to 50 | < 10 | 10 to 50 |  |  |  |  | Cn1cnc(-c2cc(Cl)c(F)c(C(=O)NNS(=O)(=O)CC3CCN(C(=O)CCO)C3)c2)c1 (stereo not shown) [Compound I-83] |
| 10 to 50 | 10 to 50 | 10 to 50 | 10 to 50 |  |  |  |  | CC1CCNCC1CS(=O)(=O)NNC(=O)c1cc(-c2cn(C)cn2)cc(Cl)c1F (stereo not shown) [Compound I-307] |
| < 10 | < 10 | < 10 | 10 to 50 |  |  |  |  | Cn1cnc(-c2cc(Cl)c(F)c(C(=O)NNS(=O)(=O)CC3CCCC(NC(=O)c4cccnc4)C3)c2)c1 (stereo not shown) [Compound I-236] |
| 10 to 50 | > 100 | > 100 | > 100 |  |  |  |  | Cc1ncc(-c2cc(Cl)c(F)c(C(=O)NNS(=O)(=O)C3CCCCC3)c2)n1C [Compound I-59] |
| < 10 | < 10 | < 10 | 10 to 50 |  |  |  |  | CO[C@H]1CC[C@H](CS(=O)(=O)NNC(=O)c2cc(-c3cn(C)cn3)cc(Cl)c2F)CC1 [Compound I-329] |
| 10 to 50 | 10 to 50 | 10 to 50 | 10 to 50 |  |  |  |  | Cn1cnc(-c2cc(Cl)c(F)c(C(=O)NNS(=O)(=O)C[C@@H]3CCC[C@@H](N)C3)c2)c1 [Compound I-351] |
| 10 to 50 | 50 to 100 | < 10 | > 100 |  |  |  |  | CCn1cc(-c2cc(Cl)c(F)c(C(=O)NNS(=O)(=O)C3CCCCC3)c2)nc1C [Compound I-46] |
| < 10 | < 10 | < 10 | 10 to 50 |  |  |  |  | Cn1cnc(-c2cc(Cl)c(F)c(C(=O)NNS(=O)(=O)CC3CCCC(NC(=O)Cc4ccncc4)C3)c2)c1 (stereo not shown) [Compound I-247] |
| < 10 | 10 to 50 | < 10 | > 100 |  |  |  |  | Cc1nc(-c2cc(Cl)c(F)c(C(=O)NNS(=O)(=O)C3CCCCC3)c2)cn1C [Compound I-26] |
| 10 to 50 | < 10 | < 10 | 10 to 50 |  |  |  |  | Cn1cnc(-c2cc(Cl)c(F)c(C(=O)NNS(=O)(=O)CC3CN(S(=O)(=O)C4CC4)C3)c2)c1 [Compound I-185] |
| < 10 | < 10 | < 10 | 10 to 50 |  |  |  |  | Cn1cnc(-c2cc(Cl)c(F)c(C(=O)NNS(=O)(=O)c3ccccc3Cl)c2)c1 [Compound I-309] |
| < 10 | < 10 | < 10 | 10 to 50 |  |  |  |  | Cn1cnc(-c2cc(Cl)c(F)c(C(=O)NNS(=O)(=O)CC3CCCC(NC(=O)Cc4ccccc4)C3)c2)c1 (stereo not shown) [Compound I-231] |
| < 10 | < 10 | < 10 | 10 to 50 |  |  |  |  | CCC(=O)N[C@H]1CC[C@H](CS(=O)(=O)NNC(=O)c2cc(-c3cn(C)cn3)cc(Cl)c2F)CC1 [Compound I-195] |
| < 10 | < 10 | < 10 | 10 to 50 |  |  |  |  | Cn1cnc(-c2cc(Cl)c(F)c(C(=O)NNS(=O)(=O)C[C@H]3CC[C@H](NC(=O)c4ccccc4)CC3)c2)c1 [Compound I-240] |

| IC50 [1] [µM] | IC50 [2] [µM] | IC50 [3] [µM] | IC50 [4] [µM] | IC50 ([1]; Table 6, comparative compounds) [µM] | IC50 ([2]; Table 6, comparative compounds) [µM] | IC50 ([3]; Table 6, comparative compounds) [µM] | IC50 ([4]; Table 6, comparative compounds) [µM] | SMILES |
| --- | --- | --- | --- | --- | --- | --- | --- | --- |
| < 10 | < 10 | < 10 | 10 to 50 |  |  |  |  | Cn1cnc(-c2cc(Cl)c(F)c(C(=O)NNS(=O)(=O)C[C@@H]3CCC[C@@H](NC(=O)OC(C)(C)C)C3)c2)c1 [Compound I-333] |
| < 10 | < 10 | < 10 | 10 to 50 |  |  |  |  | Cn1cnc(-c2cc(Cl)c(F)c(C(=O)NNS(=O)(=O)C[C@H]3CC[C@H](NS(C)(=O)=O)CC3)c2)c1 [Compound I-211] |
| 10 to 50 | > 100 | < 10 | > 100 |  |  |  |  | Cc1cc(-c2cn(C(C)C)cn2)cc(C(=O)NNS(=O)(=O)C2CCCCC2)c1F [Compound I-139] |
|  |  |  |  | 10 to 50 | > 100 | > 100 | > 100 | Cc1cc(-c2ccccc2)cc(C(=O)NNS(=O)(=O)CC2CCCNC2)c1F (stereo not shown) [D, reference compound] |
| < 10 | < 10 | < 10 | > 100 |  |  |  |  | Cn1cnc(-c2cc(Cl)c(F)c(C(=O)NNS(=O)(=O)C3CCN(C(=O)OC(C)(C)C)CC3)c2)c1 [Compound I-3] |
| < 10 | < 10 | < 10 | 10 to 50 |  |  |  |  | COc1ccc(CN(C)C(=O)N[C@H]2C[C@@H](CS(=O)(=O)NNC(=O)c3cc(-c4cn(C)cn4)cc(Cl)c3F)C2)cc1 [Compound I-161] |
| 10 to 50 | 10 to 50 | < 10 | 10 to 50 |  |  |  |  | CN1CC(CS(=O)(=O)NNC(=O)c2cc(-c3cn(C)cn3)cc(Cl)c2F)CC1=O (stereo not shown) [Compound I-224] |
| < 10 | < 10 | < 10 | 10 to 50 |  |  |  |  | CCNC(=O)N[C@@H]1CCC[C@H](CS(=O)(=O)NNC(=O)c2cc(-c3cn(C)cn3)cc(Cl)c2F)C1 [Compound I-266] |
| < 10 | < 10 | < 10 | > 100 |  |  |  |  | COCC(=O)N1CCCC(CS(=O)(=O)NNC(=O)c2cc(-c3cn(C)cn3)cc(C)c2F)C1 (stereo not shown) [Compound I-141] |
| 10 to 50 | 10 to 50 | < 10 | 10 to 50 |  |  |  |  | Cn1cnc(-c2cc(Cl)c(F)c(C(=O)NNS(=O)(=O)CC(=O)N3CCCC3)c2)c1 [Compound I-328] |
| 10 to 50 | 10 to 50 | < 10 | > 100 |  |  |  |  | Cc1cc(-c2cn(C)cn2)cc(C(=O)NNS(=O)(=O)Cc2ccccc2)c1F [Compound I-128] |
| > 100 | > 100 | > 100 | > 100 |  |  |  |  | Cc1ncc(-c2cc(Cl)c(F)c(C(=O)NNS(=O)(=O)CC3CCOCC3)c2)n1C [Compound I-30] |
| < 10 | < 10 | < 10 | 10 to 50 |  |  |  |  | Cn1cnc(-c2cc(Cl)c(F)c(C(=O)NNS(=O)(=O)CCC3CCOCC3)c2)c1 [Compound I-244] |
|  |  |  |  | ≤ 10 | ≤ 10 | ≤ 10 | 50 to 100 | Cc1cc(-c2ccccc2)cc(C(=O)NNS(=O)(=O)CC2CCCN(C(=O)OC(C)(C)C)C2)c1F (single isomer, unassigned) [B, reference compound] |
| < 10 | < 10 | < 10 | 10 to 50 |  |  |  |  | CCCS(=O)(=O)N1CCCC(CS(=O)(=O)NNC(=O)c2cc(-c3cn(C)cn3)cc(Cl)c2F)C1 (stereo not shown) [Compound I-94] |
| 10 to 50 | 10 to 50 | < 10 | 10 to 50 |  |  |  |  | Cn1cnc(-c2cc(Cl)c(F)c(C(=O)NNS(=O)(=O)C[C@H]3CC[C@H](N)CC3)c2)c1 [Compound I-93] |
| 10 to 50 | 10 to 50 | < 10 | > 100 |  |  |  |  | COCCn1cnc(-c2cc(C)c(F)c(C(=O)NNS(=O)(=O)CC3CCOCC3)c2)c1 [Compound I-140] |
| < 10 | < 10 | < 10 | 10 to 50 |  |  |  |  | Cn1cnc(-c2cc(Cl)c(F)c(C(=O)NNS(=O)(=O)c3ccccn3)c2)c1 [Compound I-330] |
